Data reported in patent US8163771B2, “11 β-HSD1 modulators” (Exelixis, Inc., priority 2008, dated 2012).

biological target: T1, recombinant human 11 β-HSD1 (Homo sapiens, UniProt P28845); experiment: 11 β-HSD1 SPA Assay (Scintillation Proximity Assay); assay type: biochemical
T1 construct: made in house; host or cells: E. coli
Procedure, shortened: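 E. coli-expressed human enzyme (30-100 nM) with tritiated cortisone 40 nM and NADPH 1 mM in HEPES buffer pH7.4, 2 hours at room temperature. Stopped with protein A SPA beads carrying anti-cortisol antibody and glycyrrhetinic acid; counted after overnight incubation. IC50 from percent inhibition between no-enzyme and no-compound signals.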

T1 sequence (P28845 whole entry): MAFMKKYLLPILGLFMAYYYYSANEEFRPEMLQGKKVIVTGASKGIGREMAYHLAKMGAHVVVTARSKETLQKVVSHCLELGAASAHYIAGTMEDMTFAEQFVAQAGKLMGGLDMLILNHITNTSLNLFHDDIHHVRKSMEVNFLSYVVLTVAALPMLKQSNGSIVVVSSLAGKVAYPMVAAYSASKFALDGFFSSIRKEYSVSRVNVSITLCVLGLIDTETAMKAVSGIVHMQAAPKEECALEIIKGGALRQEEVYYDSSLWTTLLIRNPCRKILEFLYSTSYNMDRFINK

SMILES | IC50 [nM]
CC(C)(Oc1ccc(Cl)cc1-c1ccccc1)C(=O)N[C@H]1C[C@H]2CC[C@@H](C1)N2c1ccc(C(N)=O)cn1 [Example 322, 6-[3-endo-({2-[(5-chlorobiphenyl-2-yl)oxy]-2-methylpropanoyl}amino)-8-azabicyclo[3.2.1]oct-8-yl]pyridine-3-carboxamide] | < 200
CC(C)(Oc1ccc(Cl)cc1Cl)C(=O)N[C@H]1C[C@H]2CC[C@@H](C1)N2Cc1ccc(C(N)=O)cn1 [Example 323, 6-{[3-endo-({2-[(2,4-dichlorophenyl)oxy]-2-methylpropanoyl}amino)-8-azabicyclo[3.2.1]oct-8-yl]methyl}pyridine-3-carboxamide] | < 2000
CC(C)(Oc1ccc(Cl)cc1S(C)(=O)=O)C(=O)N[C@H]1C[C@H]2CC[C@@H](C1)N2c1ccc(S(C)(=O)=O)cn1 [Example 324, 2-{[4-chloro-2-(methylsulfonyl)phenyl]oxy}-2-methyl-N-{8-[5-(methylsulfonyl)pyridin-2-yl]-8-azabicyclo[3.2.1]oct-3-endo-yl}propanamide] | < 2000
CC(C)(Oc1ncc(Cl)cc1C(F)(F)F)C(=O)N[C@H]1C[C@H]2CC[C@@H](C1)N2c1ccc(S(C)(=O)=O)cc1 [Example 325, 2-{[5-chloro-3-(trifluoromethyl)pyridin-2-yl]oxy}-2-methyl-N-{8-[4-(methylsulfonyl)phenyl]-8-azabicyclo[3.2.1]oct-3-endo-yl}propanamide] | < 200
CC(C)(Oc1ccccc1S(C)(=O)=O)C(=O)N[C@H]1C[C@H]2CC[C@@H](C1)N2c1ccc(C(N)=O)cn1 [Example 326, 6-{3-endo-[(2-methyl-2-{[2-(methylsulfonyl)phenyl]oxy}propanoyl)amino]-8-azabicyclo[3.2.1]oct-8-yl}pyridine-3-carboxamide] | < 200
CC(C)(Oc1ccc(Cl)cc1Cl)C(=O)N[C@H]1C[C@H]2CC[C@@H](C1)N2C(=O)c1cccc(C(N)=O)c1 [Example 327, 3-{[3-endo-({2-[(2,4-dichlorophenyl)oxy]-2-methylpropanoyl)amino)-8-azabicyclo[3.2.1]oct-8-yl]carbonyl}benzamide] | < 2000
CC(C)(Sc1ccc(Cl)cc1Cl)C(=O)N[C@H]1C[C@H]2CC[C@@H](C1)N2c1ccc(S(C)(=O)=O)cn1 [Example 328, 2-[(2,4-dichlorophenyl)thio]-2-methyl-N-{8-[5-(methylsulfonyl)pyridin-2-yl]-8-azabicyclo[3.2.1]oct-3-endo-yl}propanamide] | < 200
CC(C)(Oc1ccc(Cl)c(Cl)c1)C(=O)N[C@H]1C[C@H]2CC[C@@H](C1)N2c1ccc(NS(C)(=O)=O)cc1 [Example 329, 2-[(3,4-dichlorophenyl)oxy]-2-methyl-N-(8-{4-[(methylsulfonyl)amino]phenyl}-8-azabicyclo[3.2.1]oct-3-endo-yl)propanamide] | < 200
CC(C)(Oc1ccc(F)cc1Cl)C(=O)N[C@H]1C[C@H]2CC[C@@H](C1)N2c1ccc(-c2nc(C(F)(F)F)n[nH]2)cn1 [Example 330, 2-[(2-chloro-4-fluorophenyl)oxy]-2-methyl-N-(8-{5-[3-(trifluoromethyl)-1H-1,2,4-triazol-5-yl]pyridin-2-yl}-8-azabicyclo[3.2.1]oct-3-endo-yl)propanamide] | < 2000
CC(C)c1cc(Cl)ccc1OC(C)(C)C(=O)N[C@H]1C[C@H]2CC[C@@H](C1)N2c1ccc(C(N)=O)cn1 [Example 331, 6-{3-endo-[(2-{[4-chloro-2-(1-methylethyl)phenyl]oxy}-2-methylpropanoyl)amino]-8-azabicyclo[3.2.1]oct-8-yl}pyridine-3-carboxamide] | < 200
CS(=O)(=O)c1ccc(N2[C@@H]3CC[C@H]2C[C@@H](NC(=O)C2(c4ccc(F)c(Cl)c4)CC2)C3)nc1 [Example 332, 1-(3-chloro-4-fluorophenyl)-N-{8-[5-(methylsulfonyl)pyridin-2-yl]-8-azabicyclo[3.2.1]oct-3-endo-yl}cyclopropanecarboxamide] | < 200
CC(C)(Oc1ccc(Cl)cc1C(F)(F)F)C(=O)N[C@H]1C[C@H]2CC[C@@H](C1)N2c1ccc(NS(C)(=O)=O)cn1 [Example 333, 2-{[4-chloro-2-(trifluoromethyl)phenyl]oxy}-2-methyl-N-(8-{5-[(methylsulfonyl)amino]pyridin-2-yl}-8-azabicyclo[3.2.1]oct-3-endo-yl)propanamide] | < 200
CC(C)(Oc1ccc(Cl)cc1S(C)(=O)=O)C(=O)N[C@H]1C[C@H]2CC[C@@H](C1)N2c1ccc(C(N)=O)cn1 [Example 334, 6-{3-endo-[(2-{[4-chloro-2-(methylsulfonyl)phenyl]oxy}-2-methylpropanoyl)amino]-8-azabicyclo[3.2.1]oct-8-yl}pyridine-3-carboxamide] | < 200
CC(C)(Oc1cc(C(F)(F)F)ccc1F)C(=O)N[C@H]1C[C@H]2CC[C@@H](C1)N2c1ccc(S(C)(=O)=O)cn1 [Example 335, 2-{[2-fluoro-5-(trifluoromethyl)phenyl]oxy}-2-methyl-N-{8-[5-(methylsulfonyl)pyridin-2-yl]-8-azabicyclo[3.2.1]oct-3-endo-yl}propanamide] | < 2000
CC(C)(O)CNC(=O)c1ccc(N2[C@@H]3CC[C@H]2C[C@@H](NC(=O)C(C)(C)Oc2cc(C(C)(C)O)c(Cl)cc2Cl)C3)nc1 [Example 336, 6-[3-endo-({2-[2,4-dichloro-5-(2-hydroxypropan-2-yl)phenoxy]-2-methylpropanoyl}amino)-8-azabicyclo[3.2.1]oct-8-yl]-N-(2-hydroxy-2-methylpropyl)pyridine-3-carboxamide] | < 200
CC(C)(Oc1ccc(Cl)cc1Br)C(=O)N[C@H]1C[C@H]2CC[C@@H](C1)N2c1ccc(C(=O)NCC(F)(F)F)cn1 [Example 337, 6-(3-endo-{[2-(2-bromo-4-chlorophenoxy)-2-methylpropanoyl]amino}-8-azabicyclo[3.2.1]oct-8-yl)-N-(2,2,2-trifluoroethyl)pyridine-3-carboxamide] | < 200
CC(C)(Oc1ccc2ccccc2c1)C(=O)N[C@H]1C[C@H]2CC[C@@H](C1)N2c1ccc(C(=O)NCC(F)(F)F)cn1 [Example 338, 6-(3-endo-{[2-methyl-2-(naphthalen-2-yloxy)propanoyl]amino}-8-azabicyclo[3.2.1]oct-8-yl)-N-(2,2,2-trifluoroethyl)pyridine-3-carboxamide] | < 200
CC(C)(Oc1nccc2ccccc12)C(=O)N[C@H]1C[C@H]2CC[C@@H](C1)N2c1ccc(C(N)=O)cn1 [Example 339, 6-(3-endo-{[2-(isoquinolin-1-yloxy)-2-methylpropanoyl]amino}-8-azabicyclo[3.2.1]oct-8-yl)pyridine-3-carboxamide] | < 200
CC(C)(Oc1ccc(Cl)cc1Cl)C(=O)N[C@H]1C[C@H]2CC[C@@H](C1)N2c1ccc(C(=O)NCCN2CCCC2)cn1 [Example 340, 6-(3-endo-{[2-(2,4-dichlorophenoxy)-2-methylpropanoyl]amino}-8-azabicyclo[3.2.1]oct-8-yl)-N-[2-(pyrrolidin-1-yl)ethyl]pyridine-3-carboxamide] | < 200
CC(C)(Oc1ccc(Cl)cc1Cl)C(=O)N[C@H]1C[C@H]2CC[C@@H](C1)N2c1ccc(C(=O)NCCCn2ccnc2)cn1 [Example 341, 6-(3-endo-{[2-(2,4-dichlorophenoxy)-2-methylpropanoyl]amino}-8-azabicyclo[3.2.1]oct-8-yl)-N-[3-(1h-imidazol-1-yl)propyl]pyridine-3-carboxamide] | < 200
